The values that follow come from the supplement of paper PMC10307832.

Holding throughout (test): relative viability (nuclei count vs DMSO), 5 days (fraction); higher = more cells survive
Compound in experiment [1]: COc1cc2/c(=N/c3ccc(Br)cc3F)nc[nH]c2cc1OCC1CCN(C)CC1 [Vandetanib] + Cc1nc(Nc2ncc(C(=O)Nc3c(C)cccc3Cl)s2)cc(N2CCN(CCO)CC2)n1 [Dasatinib] (partner 0.075 µM)
The method in brief: (§1)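 Five library-drug doses in √10 steps were combined with a fixed anchor-drug dose, or a single drug was given alone, by pin tool to lung cancer cell lines in 1536-well plates the day after seeding. Nuclei were stained and counted after 5 days. Relative viability is the nuclei count in treated wells over that in vehicle wells, taken as the median of duplicate plates.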

Compound in experiment [2]: C#Cc1cccc(Nc2ncnc3cc(OC)c(OCCCCCCC(=O)NO)cc23)c1 [CUDC-101] + CC(=O)Nc1cccc(-n2c(=O)n(C3CC3)c(=O)c3c(Nc4ccc(I)cc4F)n(C)c(=O)c(C)c32)c1 [Trametinib] (partner 0.02 µM)
The method in brief:
as §1

Compound in experiment [3]: C#Cc1cccc(Nc2ncnc3cc(OC)c(OCCCCCCC(=O)NO)cc23)c1 [CUDC-101] + CC1(C)CCC(c2ccc(Cl)cc2)=C(CN2CCN(c3ccc(C(=O)NS(=O)(=O)c4ccc(N[C@H](CCN5CCOCC5)CSc5ccccc5)c(S(=O)(=O)C(F)(F)F)c4)cc3)CC2)C1 [Navitoclax] (partner 0.5 µM)
A digest of the protocol: as §1

Compound in experiment [4]: COc1cc2/c(=N/c3ccc(Br)cc3F)nc[nH]c2cc1OCC1CCN(C)CC1 [Vandetanib] + O=C(c1cc(Cc2n[nH]c(=O)c3ccccc23)ccc1F)N1CCN(C(=O)C2CC2)CC1 [Olaparib] (partner 8 µM)
A digest of the protocol:
as §1

As to NCI-H1666, the relative viability turned out to be 0.767 in experiment [1] (first compound 0.02 µM); 0.723 in experiment [1] (first compound 0.06325 µM); 0.801 in experiment [1] (first compound 0.2 µM); 0.769 in experiment [1] (first compound 0.6325 µM); 0.779 in experiment [1] (first compound 2 µM); 0.842 in experiment [2] (first compound 0.01 µM). In addition, the relative viability in experiment [2] (first compound 0.03162 µM) amounted to 0.931; in experiment [2] (first compound 0.1 µM), 0.818; in experiment [2] (first compound 0.3162 µM), 0.911; in experiment [2] (first compound 1 µM), 0.831; in experiment [3] (first compound 0.01 µM), 1.07; in experiment [3] (first compound 0.03162 µM) it was 0.796. Further, the relative viability in experiment [3] (first compound 0.1 µM) was 1; in experiment [3] (first compound 0.3162 µM), 1.04; in experiment [3] (first compound 1 µM), 0.548; in experiment [4] (first compound 0.02 µM), 0.787; in experiment [4] (first compound 0.06325 µM) it was 0.749; in experiment [4] (first compound 0.2 µM), 0.812. Moreover, the relative viability in experiment [4] (first compound 0.6325 µM) worked out at 0.758; in experiment [4] (first compound 2 µM) it was 0.754.
As to NCI-H1734, the relative viability in experiment [1] (first compound 0.02 µM) is 0.471; in experiment [1] (first compound 0.06325 µM) it was 0.497; in experiment [1] (first compound 0.2 µM) it was 0.44; in experiment [1] (first compound 0.6325 µM), 0.469; in experiment [1] (first compound 2 µM) it was 0.468; in experiment [2] (first compound 0.01 µM), 0.694. Further, the relative viability in experiment [2] (first compound 0.03162 µM) stood at 0.594; in experiment [2] (first compound 0.1 µM), 0.761; in experiment [2] (first compound 0.3162 µM), 0.786; in experiment [2] (first compound 1 µM), 0.523; in experiment [3] (first compound 0.01 µM), 0.959; in experiment [3] (first compound 0.03162 µM) it was 0.82. The relative viability was found to be 0.917 in experiment [3] (first compound 0.1 µM); 0.911 in experiment [3] (first compound 0.3162 µM); 0.501 in experiment [3] (first compound 1 µM); 0.58 in experiment [4] (first compound 0.02 µM); 0.576 in experiment [4] (first compound 0.06325 µM); 0.679 in experiment [4] (first compound 0.2 µM). Moreover, the relative viability worked out at 0.612 in experiment [4] (first compound 0.6325 µM) and 0.572 in experiment [4] (first compound 2 µM).
Turning to NCI-H1755, the relative viability in experiment [1] (first compound 0.02 µM) was 0.416; in experiment [1] (first compound 0.06325 µM), 0.425; in experiment [1] (first compound 0.2 µM), 0.446; in experiment [1] (first compound 0.6325 µM), 0.42; in experiment [1] (first compound 2 µM) it was 0.404; in experiment [2] (first compound 0.01 µM), 0.794. For the same cell line, the relative viability in experiment [2] (first compound 0.03162 µM) was determined as 0.761; in experiment [2] (first compound 0.1 µM), 0.784; in experiment [2] (first compound 0.3162 µM) it was 0.792; in experiment [2] (first compound 1 µM), 0.812; in experiment [3] (first compound 0.01 µM) it was 0.984; in experiment [3] (first compound 0.03162 µM), 1.01. Also, the relative viability in experiment [3] (first compound 0.1 µM) was found to be 0.995; in experiment [3] (first compound 0.3162 µM), 1.02; in experiment [3] (first compound 1 µM), 0.951; in experiment [4] (first compound 0.02 µM) it was 0.917; in experiment [4] (first compound 0.06325 µM), 0.863; in experiment [4] (first compound 0.2 µM), 0.848. For the same cell line, the relative viability in experiment [4] (first compound 0.6325 µM) worked out at 0.822; in experiment [4] (first compound 2 µM) it was 0.863.
On to NCI-H1792, for which the relative viability in experiment [1] (first compound 0.02 µM) was 0.774; in experiment [1] (first compound 0.06325 µM), 0.803; in experiment [1] (first compound 0.2 µM), 0.783; in experiment [1] (first compound 0.6325 µM), 0.884; in experiment [1] (first compound 2 µM), 0.725; in experiment [2] (first compound 0.01 µM), 0.607. Further, the relative viability in experiment [2] (first compound 0.03162 µM) amounted to 0.322; in experiment [2] (first compound 0.1 µM), 0.439; in experiment [2] (first compound 0.3162 µM), 0.453; in experiment [2] (first compound 1 µM), 0.359; in experiment [3] (first compound 0.01 µM) it was 0.586; in experiment [3] (first compound 0.03162 µM), 0.636. For the same cell line, the relative viability in experiment [3] (first compound 0.1 µM) was 0.56; in experiment [3] (first compound 0.3162 µM), 0.625; in experiment [3] (first compound 1 µM) it was 0.582; in experiment [4] (first compound 0.02 µM) it was 0.425; in experiment [4] (first compound 0.06325 µM), 0.442; in experiment [4] (first compound 0.2 µM), 0.469. Besides, the relative viability in experiment [4] (first compound 0.6325 µM) came out at 0.66; in experiment [4] (first compound 2 µM), 0.409.
NCI-H1793: the relative viability turned out to be 0.448 in experiment [1] (first compound 0.02 µM); 0.353 in experiment [1] (first compound 0.06325 µM); 0.387 in experiment [1] (first compound 0.2 µM); 0.381 in experiment [1] (first compound 0.6325 µM); 0.391 in experiment [1] (first compound 2 µM); 0.331 in experiment [2] (first compound 0.01 µM). Besides, the relative viability is 0.347 in experiment [2] (first compound 0.03162 µM); 0.349 in experiment [2] (first compound 0.1 µM); 0.427 in experiment [2] (first compound 0.3162 µM); 0.44 in experiment [2] (first compound 1 µM); 0.426 in experiment [3] (first compound 0.01 µM); 0.319 in experiment [3] (first compound 0.03162 µM). In addition, the relative viability in experiment [3] (first compound 0.1 µM) is 0.417; in experiment [3] (first compound 0.3162 µM), 0.406; in experiment [3] (first compound 1 µM), 0.35; in experiment [4] (first compound 0.02 µM) it was 0.86; in experiment [4] (first compound 0.06325 µM) it was 0.803; in experiment [4] (first compound 0.2 µM), 0.74. Also, the relative viability is 0.658 in experiment [4] (first compound 0.6325 µM) and 0.577 in experiment [4] (first compound 2 µM).
For the cell line NCI-H1915, the relative viability worked out at 0.278 in experiment [1] (first compound 0.02 µM); 0.279 in experiment [1] (first compound 0.06325 µM); 0.304 in experiment [1] (first compound 0.2 µM); 0.313 in experiment [1] (first compound 0.6325 µM); 0.312 in experiment [1] (first compound 2 µM); 0.308 in experiment [2] (first compound 0.01 µM). For the same cell line, the relative viability in experiment [2] (first compound 0.03162 µM) stood at 0.287; in experiment [2] (first compound 0.1 µM), 0.305; in experiment [2] (first compound 0.3162 µM), 0.314; in experiment [2] (first compound 1 µM), 0.273; in experiment [3] (first compound 0.01 µM), 0.796; in experiment [3] (first compound 0.03162 µM), 0.793. The relative viability in experiment [3] (first compound 0.1 µM) was 0.804; in experiment [3] (first compound 0.3162 µM) it was 0.743; in experiment [3] (first compound 1 µM) it was 0.743; in experiment [4] (first compound 0.02 µM) it was 0.244; in experiment [4] (first compound 0.06325 µM), 0.227; in experiment [4] (first compound 0.2 µM), 0.265. The relative viability in experiment [4] (first compound 0.6325 µM) came to 0.231; in experiment [4] (first compound 2 µM), 0.24.
Turning to NCI-H1944, the relative viability in experiment [1] (first compound 0.02 µM) was 0.208; in experiment [1] (first compound 0.06325 µM), 0.218; in experiment [1] (first compound 0.2 µM) it was 0.205; in experiment [1] (first compound 0.6325 µM), 0.195; in experiment [1] (first compound 2 µM), 0.215; in experiment [2] (first compound 0.01 µM), 0.375. The relative viability is 0.422 in experiment [2] (first compound 0.03162 µM); 0.415 in experiment [2] (first compound 0.1 µM); 0.388 in experiment [2] (first compound 0.3162 µM); 0.373 in experiment [2] (first compound 1 µM); 1.02 in experiment [3] (first compound 0.01 µM); 1.03 in experiment [3] (first compound 0.03162 µM). Further, the relative viability in experiment [3] (first compound 0.1 µM) turned out to be 1.01; in experiment [3] (first compound 0.3162 µM), 1.09; in experiment [3] (first compound 1 µM) it was 0.861; in experiment [4] (first compound 0.02 µM) it was 0.414; in experiment [4] (first compound 0.06325 µM), 0.396; in experiment [4] (first compound 0.2 µM) it was 0.306. Besides, the relative viability in experiment [4] (first compound 0.6325 µM) came to 0.377; in experiment [4] (first compound 2 µM), 0.397.
